The values below come from DBAASP.

Each structure is given as a SMILES string. Values after ≈ are worked out from the molar mass of the structure shown. Values joined by “and” are separate entries in the source; they are usually repeats but may differ in a detail not shown here. Identical values can stand only once.

Holding throughout (assay): ≥ marks a high value that may be exact or a test limit, other limits are often not marked, values filed in µg/mL are converted to µM
Experiment [1] relates to Staphylococcus aureus ΔmprFpRBsyn.
Experiment [2] concerns Staphylococcus aureus ΔmprF.
For experiment [3], the system named is Staphylococcus aureus.
Experiment [4] has as its system Staphylococcus aureus ATCC 43300.
For experiment [5], the system named is Acinetobacter baumannii ATCC 19606.
Experiment [6] concerns Escherichia coli ATCC 25922.
The subject of experiment [7] is Yersinia pestis KIM pYV.
The test system of experiment [8] is Brucella abortus 9.49 (per-).
In experiment [9] the test system is Escherichia coli ATCC 23716.
In experiment [10] the test system is Pseudomonas aeruginosa CUN 4158-02.
Experiment [11] concerns Bordetella bronchiseptica CUN 11844-99.

As to `CC[C@H](C)[C@H](NC(=O)[C@H](CCCCN)NC(=O)[C@H](CCCCN)NC(=O)[C@H](CO)NC(=O)[C@@H](NC(=O)CNC(=O)[C@H](CCCN=C(N)N)NC(=O)[C@H](CC(C)C)NC(=O)[C@@H](NC(=O)[C@@H](N)CCCCN)[C@@H](C)CC)C(C)C)C(=O)N[C@@H](CCSC)C(=O)N[C@@H](CCCN=C(N)N)C(=O)N[C@H](C(=O)N[C@@H](Cc1ccccc1)C(=O)N[C@@H](CC(C)C)C(=O)N[C@@H](CCCN=C(N)N)C(=O)N[C@@H](CCCN=C(N)N)C(=O)N[C@H](C(=O)N[C@@H](CC(C)C)C(=O)N[C@H](C(=O)NCC(=O)N[C@@H](CCCCN)C(=O)N[C@@H](CCCCN)C(N)=O)[C@@H](C)O)[C@@H](C)CC)[C@@H](C)O` [KILRGVSKKIMRTFLRRILTGKK], the MIC stood at 1.46 µM (≈ 4 µg/mL) in experiment [1]; 1.46 µM (≈ 4 µg/mL) in [2]; 5.83 µM (≈ 16 µg/mL) in experiment [3]; 23.3 µM (≈ 64 µg/mL) in experiment [4]; 1.46 µM (≈ 4 µg/mL) in experiment [5]; 1.46 µM (≈ 4 µg/mL) in experiment [6]. The MIC in experiment [7] is 5.83 µM (≈ 16 µg/mL); in experiment [8] it was 1.46 µM (≈ 4 µg/mL); in experiment [9] it was 2.92 µM and 6.93 µM; in experiment [10], 1.46 µM (≈ 4 µg/mL); in experiment [11], 0.729 µM (≈ 2 µg/mL).
